Source: patent publication US4973578A, “Synthetic peptides derived from the alpha-subunit of human lycoprotein hormones” (Mayo Foundation for Medical Education and Research, priority 1988, dated 1990)
Values joined by “and” are separate entries in the source; they are usually repeats but may differ in a detail not shown here. Equal values may be shown once. Residues, ends and D or L forms follow the SMILES beside them.

Columns and labels:
Type in all cases: cell-based, rat
[1] = tested on: cAMP production (adenylate cyclase activity) in FRTL-5 cells; assay: TSH bioassay, cAMP stimulation in FRTL-5 cells; conditions: at least 2 separate assays
Description: (§1) FRTL-5 cells were maintained in Ham's F-12 medium supplemented with 5% calf serum and a 6 hormone preparation including 10 mU/ml bTSH as described by Ambesi-Impiombato et al., Proc. Natl. Acad. Sci. U.S.A., 77:3455 (1980), the disclosure of which is incorporated herein. For all assays herein described, the cells were plated in 24 well plates and grown for 3 days at 37° C. then maintained for 5-7 days in medium supplemented with 10 ug insulin alone prior to assay.
(§2) The bioassay was a modification of those previously described by Bidey et al, J. Endocrinol., 101:269 (1984); and Kasagi et al., ACTA Endocrinol., 115:30 (1987). To duplicate culture wells were added varying concentrations of test materials (see below) in a final volume of 300 ul of NaCl free HBSS with 0.5 mM iso-butyl-methyl-xanthine (IBMX, Sigma, St. Louis). In stimulation assays, only synthetic α-subunit peptides were added to the incubation medium. […] Basal cAMP levels were determined in the presence of HBSS and IBMX alone. In inhibition assays percent inhibition was calculated as follows: [formula]
The standard curve for TSH is shown in FIG. 3 and reports TSH deprived FRTL-5 cells incubated for 2 hrs. in buffer (NaCl-free HBSS, 200 mM sucrose, 0.5% BSA, 0.5 mM IBMX) with increasing concentrations of bTSH. cAMP released into the incubation media was measured by RIA. […]

[2] = tested on: TSH mediated cAMP generation in FRTL-5 cells; assay: Inhibition of TSH mediated cAMP generation in FRTL-5 cells; conditions: 200 mU/L bTSH, 2 hrs 37° C.
Description: as §1
as §2, with “medium. For inhibition assays, the noted concentrations of synthetic α-subunit peptides were added immediately prior to the addition of 200 mU/L bTSH. The plates were incubated at 37° C. in 5% CO2 for 2 hrs then 100 ul of incubation medium was removed and diluted in 900 ul of 0.05M sodium acetate pH 6.2 and assayed for cAMP content by RIA in accordance with procedures described by Wray and Glinos, Am. J. Physiol., 234 (Cell Phisol. 3):C131(1978)); and Steiner et al., J. Biol. Chem., 247:1106 (1972).” for “medium.”
FIG. 4 reports data obtained for TSH deprived FRTL-5 cells incubated with a fixed amount of bTSH (200 mU/l) by itself or with various concentrations of synthetic peptides. cAMP content of medium was measured after 2 hrs. incubation at 37° C. Percent inhibition of cAMP generation was calculated as noted above.

[3] = tested on: thyroid stimulating immunoglobulin (TSI) stimulated cAMP in FRTL-5 cells; assay: TSI bioassay: inhibition of thyroid stimulating immunoglobulin activity (PEG-precipitated patient immunoglobulin) in FRTL-5 cells; conditions: for Percent inhibition of TSI activity, mean: mean of patient samples tested
Source text: Ten patients (8 women and 2 men) with Graves' disease and high levels of TSI were identified after evaluation by FRTL-5 cell bioassay in the clinical chemistry laboratory. (FRTL-5 bioassay described below employing known TSH receptor recognition of various species hormones) Consecutive samples that had indices greater than 15 and sufficient serum remaining for further evaluation were chosen. Seven of the 10 had serum thyroxine values above the normal range and 9 of 10 had TSH levels below the euthyroid range by sensitive immunoradiometric assay [Boots-Celltech Sucrosep, Berkshire, UK, conducted as described in Klee and Hay, J. Clin. Endocrinol. Metab., 64:461 (1987)]. (FIG. 5). For comparison serum from 13 normal subjects was examined for TSI at the same serum dilution as the patient sera. (FIG. 5).
FRTL-5 cells were maintained in Ham's F-12 medium supplemented with 5% calf serum and a 6-hormone preparation (6H) as described by Ambesi-Impiombato, supra. The cells were removed from flasks enzymatically, plated at 150,000 cells per well in 24 well plates, and grown in 6H medium for 4 days. The medium was then replaced with fresh medium supplemented with insulin only (1H) for 7 days prior to assay. The bioassay was a modification of that described by Kasagi et al., supra. Briefly, immunoglobulins were precipitated from 2 ml of serum with 6 ml 20% polyethylene glycol 6000 (Baker, Phillipsburg, N.J.), centrifuged at 2800×g for 20 minutes, and then reconstituted in 2.4 ml buffer (NaCl-free Hanks balanced salt solution, NaCl-free HBSS), containing 1 mM iso-butyl-methyl-xanthine (IBMX, Sigma, St. Louis) and 1.5% BSA. After washing the cells with HBSS, 150 ul of buffer was added to the wells plus varying concentrations of synthetic α-subunit peptides followed immediately by 150 ul of the crude immunoglobulin extract. The plates were incubated for 2 hours at 37° C., 5% CO2 after which 100 ul of medium was removed and diluted in 900 ul 50 mM sodium acetate buffer, pH 6.2. cAMP content was determined by radioimmunoassay using the procedures described in Wray and Glinos, supra and Steiner et al., supra. Basal cAMP levels were determined in the absence of immunoglobulin extract and synthetic peptides for each plate. Basal and maximum levels were determined in quadruplicate; peptide effects were measured in duplicate at each concentration.
Percent increase in cAMP levels over basal was calculated as below: [formula]
Percent inhibition of TSI activity by the synthetic α-subunit peptides was calculated as follows: [formula]
cAMP levels in the presence of synthetic peptides were compared to maximum levels using student's T test for paired samples. Mean percent inhibition between different peptides were compared with student's T test for independent samples. Correlations were determined by Pearson's R.

With CSCC[C@H](NC(=O)[C@H](CS)NC(=O)[C@H](CCC(N)=O)NC(=O)[C@@H](N)CC(C)C)C(=O)NCC(=O)N[C@@H](CS)C(=O)N[C@@H](CS)C(=O)N[C@@H](Cc1ccccc1)C(=O)N[C@@H](CO)C(=O)N[C@@H](CCCNC(=N)N)C(=O)N[C@@H](C)C(=O)N[C@@H](Cc1ccc(O)cc1)C(=O)N1CCC[C@H]1C(=O)N[C@H](C(=O)N1CCC[C@H]1C(=O)N[C@@H](CC(C)C)C(=O)N[C@@H](CCCNC(=N)N)C(=O)N[C@@H](CO)C(=O)N[C@@H](CCCCN)C(=O)N[C@@H](CCCCN)C(=O)N[C@H](C(N)=O)[C@@H](C)O)[C@@H](C)O [α26-46, Leu--Gln--Cys--Met--Gly--Cys--Cys--Phe--Ser--Arg--Ala--Tyr--Pro--Thr--Pro--Leu--Arg--Ser--Lys--Lys--Thr--(NH2)] (H-LQCMGCCFSRAYPTPLRSKKT-NH2) the “stimulation of cAMP levels over basal by peptide alone, in words” value [1] was “no ability to stimulate cAMP production”, the “percent inhibition of TSH mediated cAMP generation” value ([2]; peptide 33.3 ug/ml) was 65.0±2.6% and 64.97% and the “percent inhibition of TSH mediated cAMP generation” value ([2]; peptide 66.7 ug/ml) was 95.6±3.1% and 95.62%. The “percent inhibition of TSH mediated cAMP generation” value ([2]; peptide 133.3 ug/ml) was 106±0.8% and 106.70%, the “patient samples in which peptide showed an inhibitory effect / lowered cAMP levels” value ([3]; Graves' disease patient samples) was 10 of 10 and the “Percent inhibition of TSI activity” value ([3]; Pt. sample A, peptide 66.7 ug/ml) was 62.1%. For the same compound, the “Percent inhibition of TSI activity” value ([3]; Pt. sample A, peptide 133 ug/ml) was 125.3±3% and 125.3%, the “Percent inhibition of TSI activity” value ([3]; Pt. sample B, peptide 66.7 ug/ml) was 14.3% and the “Percent inhibition of TSI activity” value ([3]; Pt. sample B, peptide 133 ug/ml) was 125.0%. The “Percent inhibition of TSI activity” value ([3]; Pt. sample C, peptide 66.7 ug/ml) was 29.1%, the “Percent inhibition of TSI activity” value ([3]; Pt. sample C, peptide 133 ug/ml) was 86.4% and the “Percent inhibition of TSI activity” value ([3]; Pt. sample D, peptide 66.7 ug/ml) was 9.1%. For the same compound, the “Percent inhibition of TSI activity” value ([3]; Pt. sample D, peptide 133 ug/ml) was 85.7%, the “Percent inhibition of TSI activity” value ([3]; Pt. sample E, peptide 66.7 ug/ml) was 42.0% and the “Percent inhibition of TSI activity” value ([3]; Pt. sample E, peptide 133 ug/ml) was 85.9%. The “Percent inhibition of TSI activity” value ([3]; Pt. sample F, peptide 66.7 ug/ml) was 19.8%, the “Percent inhibition of TSI activity” value ([3]; Pt. sample F, peptide 133 ug/ml) was 57.8% and the “Percent inhibition of TSI activity” value ([3]; Pt. sample G, peptide 66.7 ug/ml) was 43.1%. For the same compound, the “Percent inhibition of TSI activity” value ([3]; Pt. sample G, peptide 133 ug/ml) was 77.2%, the “Percent inhibition of TSI activity” value ([3]; Pt. sample H, peptide 66.7 ug/ml) was 14.7% and the “Percent inhibition of TSI activity” value ([3]; Pt. sample H, peptide 133 ug/ml) was 52.5%. For the same compound, the “Percent inhibition of TSI activity” value ([3]; Pt. sample I, peptide 66.7 ug/ml) was 4.2%, the “Percent inhibition of TSI activity” value ([3]; Pt. sample I, peptide 133 ug/ml) was 38±9.7% and 38.0% and the “Percent inhibition of TSI activity” value ([3]; Pt. sample J, peptide 66.7 ug/ml) was 36.0%. The “Percent inhibition of TSI activity” value ([3]; Pt. sample J, peptide 133 ug/ml) was 57.7%, the “Percent inhibition of TSI activity, mean” value ([3]; peptide 66.7 ug/ml) was 27.5% and the “Percent inhibition of TSI activity, mean” value ([3]; peptide 133 ug/ml) was 79.1±8.8% and 79.1%. For the same compound, the “patient Ig samples with statistically significant inhibition of cAMP” value ([3]; peptide 133 ug/ml) was 10.
